Experimental data as given in patent publication US20230374096A1, “OBESITY TREATMENT AND PREVENTION METHODS” (Vault Bioventures, Inc., priority 2022, published 2023).

How the values were obtained:
Assay type in all cases: in vivo, human
[1] = Example 17: liraglutide and 15-hour fasting; conditions: weeks 1-4: 0.75/1.5/2.25/2.25 mg, without exercise or caloric restriction
Source text: Patients are subject to a combination HMT/HNT treatment protocol as described in Table 21 below. […] [table]

[2] = Example 16: liraglutide and One-Meal-A-Day; conditions: One-Meal-A-Day; weeks 1-4: 0.75/1.5/1.5/2.25 mg; without exercise or caloric restriction
Source text: Patients are subject to a combination HMT/HNT treatment protocol as described in Table 20 below. […] [table]

[3] = Example 18: liraglutide and 18-hour fasting; conditions: weeks 1-4: 0.75/1.5/1.5/2.25 mg, without exercise or caloric restriction
Source text: Patients are subject to a combination HMT/HNT treatment protocol as described in Table 22 below. […] [table]

[4] = Example 13: dulaglutide and One-Meal-A-Day; conditions: One-Meal-A-Day; weeks 1-4: 0.2/0.375/0.375/0.6 mg; without exercise or caloric restriction
Source text: Patients are subject to a combination HMT/HNT treatment protocol as described in Table 17 below. […] [table]

[5] = Example 15: dulaglutide and 18-hour fasting; conditions: weeks 1-4: 0.2/0.375/0.375/0.6 mg, without exercise or caloric restriction
Source text: Patients are subject to a combination HMT/HNT treatment protocol as described in Table 19 below. […] [table]

[6] = Example 14: dulaglutide and 15-hour fasting; conditions: weeks 1-4: 0.2/0.375/0.375/0.6 mg, without exercise or caloric restriction
Source text: Patients are subject to a combination HMT/HNT treatment protocol as described in Table 18 below. […] [table]

[7] = Example 2: semaglutide (injection) and 15-hour fasting; conditions: weeks 1-4: .25/.50/.50/1 mg, without exercise or caloric restriction
Source text: Patients are subject to a combination HMT/HNT treatment protocol as described in Table 6 below. […] [table]

[8] = Example 1: clinical study combining semaglutide (injection) and fasting (HMT/HNT), Patient 1
Source text: Patient 1 was subject to a combination HMT/HNT treatment protocol as described below.

[9] = Example 3: semaglutide (oral) and 18-hour fasting; conditions: weeks 1-4: .25/.50/.50/1 mg, without exercise or caloric restriction
Source text: Patients are subject to a combination HMT/HNT treatment protocol as described in Table 7 below. […] [table]

[10] = Example 6: semaglutide (oral) and 18-hour fasting; conditions: weeks 1-4: 1/2/3.5/5 mg, without exercise or caloric restriction
Source text: Patients are subject to a combination HMT/HNT treatment protocol as described in Table 10 below. […] [table]

[11] = Example 5: semaglutide (oral) and 15-hour fasting; conditions: weeks 1-4: 1/2/3.5/5 mg, without exercise or caloric restriction
Source text: Patients are subject to a combination HMT/HNT treatment protocol as described in Table 9 below. […] [table]

[12] = Example 4: semaglutide (oral) and One-Meal-A-Day; conditions: One-Meal-A-Day; weeks 1-4: 1/2/3.5/5 mg; without exercise or caloric restriction
Source text: Patients are subject to a combination HMT/HNT treatment protocol as described in Table 8 below. […] [table]

Compound: CCCCCCCCCCCCCCCC(=O)N[C@@H](CCC(=O)NCCCC[C@H](NC(=O)[C@H](C)NC(=O)[C@H](C)NC(=O)[C@H](CCC(N)=O)NC(=O)CNC(=O)[C@H](CCC(=O)O)NC(=O)[C@H](CC(C)C)NC(=O)[C@H](Cc1ccc(O)cc1)NC(=O)[C@H](CO)NC(=O)[C@H](CO)NC(=O)[C@@H](NC(=O)[C@H](CC(=O)O)NC(=O)[C@H](CO)NC(=O)[C@@H](NC(=O)[C@H](Cc1ccccc1)NC(=O)[C@@H](NC(=O)CNC(=O)[C@H](CCC(=O)O)NC(=O)[C@H](C)NC(=O)[C@@H](N)Cc1cnc[nH]1)[C@@H](C)O)[C@@H](C)O)C(C)C)C(=O)N[C@@H](CCC(=O)O)C(=O)N[C@@H](Cc1ccccc1)C(=O)N[C@H](C(=O)N[C@@H](C)C(=O)N[C@@H](Cc1c[nH]c2ccccc12)C(=O)N[C@@H](CC(C)C)C(=O)N[C@H](C(=O)N[C@@H](CCCNC(=N)N)C(=O)NCC(=O)N[C@@H](CCCNC(=N)N)C(=O)NCC(=O)O)C(C)C)[C@@H](C)CC)C(=O)O [Liraglutide]
- Therapeutic effects (e.g. weight loss) [1]: Desirable therapeutics effects (e.g. weigh loss) are achieved
- Therapeutic effects (e.g. weight loss) [2]: Desirable therapeutics effects (e.g. weigh loss) are achieved
- Therapeutic effects (e.g. weight loss) [3]: Desirable therapeutics effects (e.g. weigh loss) are achieved

Compound: Dulaglutide
- Therapeutic effects (e.g. weight loss) [4]: Desirable therapeutics effects (e.g. weigh loss) are achieved
- Therapeutic effects (e.g. weight loss) [5]: Desirable therapeutics effects (e.g. weigh loss) are achieved
- Therapeutic effects (e.g. weight loss) [6]: Desirable therapeutics effects (e.g. weigh loss) are achieved

Compound: Semaglutide
- Therapeutic effects (e.g. weight loss) [7]: Desirable therapeutics effects (e.g. weigh loss) are achieved
- Weight lost ([8]; in 30 days, combination HMT/HNT): 30 pounds
- Bodyweight reduction ([8]; starting weight 282 lbs, 30 days, weeks 1-4: .25/.50/.50/1 mg, One-Meal-A-Day): −30 lbs

Compound: Semaglutide [Semaglutide (oral)]
- Therapeutic effects (e.g. weight loss) [9]: Desirable therapeutics effects (e.g. weigh loss) are achieved
- Therapeutic effects (e.g. weight loss) [10]: Desirable therapeutics effects (e.g. weigh loss) are achieved
- Therapeutic effects (e.g. weight loss) [11]: Desirable therapeutics effects (e.g. weigh loss) are achieved
- Therapeutic effects (e.g. weight loss) [12]: Desirable therapeutics effects (e.g. weigh loss) are achieved
